Assay results: EPA's ToxRefDB 2

How the values were obtained:
mouse [1] = conditions: Sub-acute repeat dose toxicity, b6c3f1, Oral, Gavage/Intubation, dose end: 14 day, group: systemic
mouse [2] = conditions: Subchronic oral toxicity in rodents, b6c3f1, Gavage/Intubation, dose end: 13 week, group: systemic
rat [3] = conditions: Subchronic oral toxicity in rodents, fischer, Gavage/Intubation, dose end: 13 week, group: systemic
mouse [4] = conditions: Subchronic oral toxicity in rodents, b6c3f1, Gavage/Intubation, dose end: 17 week, group: systemic
mouse [5] = conditions: Combined chronic toxicity/carcinogenicity; b6c3f1; Oral; Gavage/Intubation; dose end: 104 week; group: systemic; systemic / pathology microscopic / stomach / hyperkeratosis + systemic / pathology microscopic / stomach / hyperplasia + systemic / …
rat [6] = conditions: Subchronic inhalation toxicity, other, Whole-Body, dose end: 13 week, group: systemic
rat [7] = conditions: Combined chronic toxicity/carcinogenicity, fischer, Oral, Gavage/Intubation, dose end: 104 week, group: systemic
rat [8] = conditions: Subchronic oral toxicity in rodents, sprague dawley, Gavage/Intubation, dose end: 90 day, group: systemic
mouse [9] = conditions: Combined chronic toxicity/carcinogenicity, b6c3f1, Oral, Gavage/Intubation, dose end: 104 week, group: systemic
rat [10] = conditions: Multigenerational reproductive toxicity study, other, Inhalation, Whole-Body, dose end: 1 generation
rat [11] = conditions: Combined chronic toxicity/carcinogenicity; fischer; Oral; Gavage/Intubation; dose end: 104 week; group: systemic; systemic / pathology microscopic / stomach / hyperplasia + systemic / pathology microscopic / clitoral gland / hyperplasia + systemic / …
rat [12] = conditions: Subchronic inhalation toxicity, other, Whole-Body, dose end: 13 week, group: systemic; remark: listed apart in the source
rat [13] = conditions: Sub-acute repeat dose toxicity, other, Inhalation, Whole-Body, dose end: 4 week, group: systemic
rat [14] = conditions: Subchronic oral toxicity in rodents, sprague dawley, Water, dose end: 90 day, group: systemic
rat [15] = conditions: Sub-acute repeat dose toxicity, sprague dawley, Oral, Gavage/Intubation, dose end: 10 day, group: systemic
mouse [16] = conditions: Multigenerational reproductive toxicity study, cd1, Oral, Gavage/Intubation, dose end: 2 generation
rat [17] = conditions: Subchronic oral toxicity in rodents, fischer, Gavage/Intubation, dose end: 17 week, group: systemic
rat [18] = conditions: Prenatal developmental toxicity study; wistar; Oral; Gavage/Intubation; dose end: 21 GD; group: developmental; systemic / in life observation / body weight / fetal weight + developmental / developmental landmark / anogenital distance (agd) / …
[19] = systemic / organ weight / stomach / nos + systemic / pathology microscopic / stomach / hyperplasia + systemic / pathology microscopic / …
[20] = systemic / pathology microscopic / stomach / hyperplasia
[21] = systemic / pathology microscopic / stomach / hyperplasia + systemic / organ weight / stomach / absolute + systemic / organ weight / stomach…
[22] = systemic / pathology microscopic / lung / regeneration + systemic / pathology microscopic / stomach / acanthosis + systemic / pathology …
[23] = systemic / hematology / platelet / platelet + systemic / in life observation / clinical signs / lacrimation
[24] = systemic / in life observation / clinical signs / lacrimation
[25] = systemic / pathology microscopic / clitoral gland / adenoma + systemic / pathology microscopic / clitoral gland / adenoma/carcinoma combined…
[26] = systemic / pathology microscopic / stomach / squamous cell papilloma + systemic / pathology microscopic / pancreas / hyperplasia + systemic…
[27] = systemic / pathology microscopic / heart / inflammation + systemic / pathology microscopic / heart / necrosis
[28] = systemic / pathology microscopic / heart / inflammation + systemic / pathology microscopic / heart / necrosis + systemic / clinical …
[29] = systemic / pathology microscopic / harderian gland / adenoma + systemic / pathology microscopic / liver / hepatocellular adenoma + systemic…
[30] = systemic / pathology microscopic / stomach / squamous cell carcinoma + systemic / pathology microscopic / stomach / squamous cell papilloma…
[31] = group: parental, systemic / in life observation / body weight / body weight + systemic / in life observation / body weight / body weight gain
[32] = group: reproductive, reproductive / reproductive performance / mating / mating
[33] = systemic / hematology / leukocyte (wbc) count differential / leukocyte (wbc) + systemic / in life observation / body weight / body weight + …
[34] = systemic / pathology microscopic / lung / hyperplasia + systemic / pathology microscopic / spleen / hematopoietic cell proliferation + …
[35] = systemic / in life observation / body weight / body weight + systemic / in life observation / body weight / body weight gain + systemic / in…
[36] = systemic / in life observation / body weight / body weight gain + systemic / organ weight / liver / absolute + systemic / organ weight / …
[37] = systemic / clinical chemistry / aminopyrine-n-demethylase / aminopyrine-n-demethylase + systemic / clinical chemistry / cholesterol / …
[38] = systemic / clinical chemistry / urea nitrogen / urea nitrogen + systemic / organ weight / kidney / relative to body weight
[39] = systemic / clinical chemistry / urea nitrogen / urea nitrogen + systemic / organ weight / kidney / relative to body weight + systemic / …
[40] = group: offspring, systemic / in life observation / body weight / offspring (pup) weight + systemic / in life observation / water consumption / water …
[41] = group: offspring, systemic / organ weight / kidney / relative to body weight + systemic / organ weight / liver / relative to body weight
[42] = group: parental, systemic / in life observation / body weight / body weight + systemic / in life observation / water consumption / water consumption + …
[43] = group: reproductive, reproductive / reproductive performance / estrous cycle / length
[44] = group: reproductive, reproductive / reproductive performance / fertility / fertility + reproductive / reproductive performance / gestational length / gestational…
[45] = systemic / clinical chemistry / [other] / [other] + systemic / hematology / erythrocyte (rbc) count differential / erythrocyte (rbc) + …

In the case of `CC(C)(C)OOC(=O)c1ccccc1` [tert-Butyl perbenzoate], the LOAEL (mouse [1]; [19]) was > 1110 mg/kg/day, the NEL (mouse [1]; [19]) was 140 mg/kg/day and the NOAEL (mouse [1]; [19]) was ≥ 1110 mg/kg/day. It also gave an LEL (mouse [1]; systemic / pathology microscopic / stomach / hyperplasia + systemic / organ weight / stomach / nos) of 278 mg/kg/day, an LEL (mouse [2]; [20]) of 60 mg/kg/day and an LOAEL (mouse [2]; [20]) of 60 mg/kg/day. For the same compound, the NEL (mouse [2]; [21]) was 30 mg/kg/day, the NOAEL (mouse [2]; [21]) was 30 mg/kg/day and the LEL (rat [3]; [20]) was 30 mg/kg/day. The NEL (rat [3]; [20]) was < 30 mg/kg/day, the LOAEL (rat [3]; systemic / pathology microscopic / stomach / hyperplasia + systemic / pathology microscopic / stomach / inflammation) was 250 mg/kg/day and the NOAEL (rat [3]; systemic / pathology microscopic / stomach / hyperplasia + systemic / pathology microscopic / stomach / inflammation + systemic / in life …) was 125 mg/kg/day.
`ClCC(Cl)CCl` [1,2,3-Trichloropropane] was tested, and the LEL (mouse [4]; systemic / organ weight / liver / absolute) was 32 mg/kg/day, the NEL (mouse [4]; systemic / organ weight / liver / absolute + systemic / in life observation / body weight / body weight gain + systemic / in life …) was 16 mg/kg/day and the LOAEL (mouse [4]; [22]) was 63 mg/kg/day. The NOAEL (mouse [4]; [22]) was 32 mg/kg/day, the LEL (mouse [5]) was 6 mg/kg/day and the LOAEL (mouse [5]) was 6 mg/kg/day. The NEL (mouse [5]) was < 6 mg/kg/day, the NOAEL (mouse [5]) was < 6 mg/kg/day and the LOAEL (rat [6]; [23]) was > 1.5 ppm. The NOAEL (rat [6]; [23]) was ≥ 1.5 ppm, the LEL (rat [6]; [24]) was 0.5 ppm and the NEL (rat [6]; [24]) was < 0.5 ppm. The LOAEL (rat [7]; [25]) was > 30 mg/kg/day, the NOAEL (rat [7]; [25]) was ≥ 30 mg/kg/day and the LEL (rat [7]; [26]) was 3 mg/kg/day. The NEL (rat [7]; [26]) was < 3 mg/kg/day, the LEL (rat [8]; [27]) was 0.00147 mg/kg/day and the NEL (rat [8]; [27]) was < 0.00147 mg/kg/day. For the same compound, the LOAEL (rat [8]; [28]) was > 0.059 mg/kg/day, the NOAEL (rat [8]; [28]) was ≥ 0.059 mg/kg/day and the LOAEL (mouse [9]; [29]) was > 60 mg/kg/day. The NOAEL (mouse [9]; [29]) was ≥ 60 mg/kg/day, the LEL (mouse [9]; [30]) was 6 mg/kg/day and the NEL (mouse [9]; [30]) was < 6 mg/kg/day. For the same compound, the LEL (rat [10]; [31]) was 15 ppm, the LOAEL (rat [10]; [31]) was > 15 ppm and the NEL (rat [10]; [31]) was 5 ppm. The NOAEL (rat [10]; [31]) was ≥ 15 ppm, the LEL (rat [10]; [32]) was 5 ppm and the LOAEL (rat [10]; [32]) was > 15 ppm. The NEL (rat [10]; [32]) was < 5 ppm, the NOAEL (rat [10]; [32]) was ≥ 15 ppm and the LEL (rat [11]) was 3 mg/kg/day. The LOAEL (rat [11]) was 3 mg/kg/day, the NEL (rat [11]) was < 3 mg/kg/day and the NOAEL (rat [11]) was < 3 mg/kg/day. The LOAEL (rat [12]; [33]) was > 50 ppm, the NOAEL (rat [12]; [33]) was ≥ 50 ppm and the LEL (rat [12]; [34]) was 5 ppm. The NEL (rat [12]; [34]) was < 5 ppm, the LOAEL (rat [13]; [35]) was > 900 ppm and the NOAEL (rat [13]; [35]) was ≥ 900 ppm. For the same compound, the LEL (rat [13]; [36]) was 100 ppm, the NEL (rat [13]; [36]) was < 100 ppm and the LOAEL (rat [14]; [37]) was > 50 mg/kg/day. For the same compound, the NEL (rat [14]; [37]) was 0.5 mg/kg/day, the NOAEL (rat [14]; [37]) was ≥ 50 mg/kg/day and the LEL (rat [14]; systemic / in life observation / water consumption / water consumption + systemic / organ weight / kidney / relative to body weight + …) was 5 mg/kg/day. The LEL (rat [15]; [38]) was 0.00147 mg/kg/day, the NEL (rat [15]; [38]) was < 0.00147 mg/kg/day and the LOAEL (rat [15]; [39]) was > 0.118 mg/kg/day. The NOAEL (rat [15]; [39]) was ≥ 0.118 mg/kg/day, the LOAEL (mouse [16]; [40]) was > 120 mg/kg/day and the NOAEL (mouse [16]; [40]) was ≥ 120 mg/kg/day. For the same compound, the LEL (mouse [16]; [41]) was 30 mg/kg/day, the NEL (mouse [16]; [41]) was < 30 mg/kg/day and the LEL (mouse [16]; [42]) was 120 mg/kg/day. The LOAEL (mouse [16]; [42]) was > 120 mg/kg/day, the NEL (mouse [16]; [42]) was 60 mg/kg/day and the NOAEL (mouse [16]; [42]) was ≥ 120 mg/kg/day. The LEL (mouse [16]; [43]) was 30 mg/kg/day, the NEL (mouse [16]; [43]) was < 30 mg/kg/day and the LOAEL (mouse [16]; [44]) was > 120 mg/kg/day. For the same compound, the NOAEL (mouse [16]; [44]) was ≥ 120 mg/kg/day, the LEL (rat [17]; [45]) was 8 mg/kg/day and the NEL (rat [17]; [45]) was < 8 mg/kg/day. The NOAEL (rat [17]; systemic / pathology microscopic / kidney / regeneration + systemic / clinical chemistry / [other] / [other] + systemic / clinical chemistry…) was 32 mg/kg/day and the LOAEL (rat [17]; systemic / pathology microscopic / kidney / regeneration + systemic / organ weight / kidney / absolute + systemic / in life observation / …) was 63 mg/kg/day.
With `CC(C)COC(=O)c1ccccc1C(=O)OCC(C)C` [Diisobutyl phthalate] the LEL (rat [18]) was 600 mg/kg/day, the LOAEL (rat [18]) was > 600 mg/kg/day and the NEL (rat [18]) was < 600 mg/kg/day. For the same compound, the NOAEL (rat [18]) was ≥ 600 mg/kg/day.
